System: 454973-116-R2-J3-PDC spheroids, viability, % test/control
Assay: Anticancer human tumor 454973-116-R2-J3-PDC patient-derived pancreatic carcinoma cell line growth inhibition [GQUAD]
Conditions: spheroids with HUVEC and MSC; for IC50: curve of first compound; for viability, T/C: stronger effect = lower value
How it was run: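 Multi-cell-type spheroids of tumor cells with HUVEC and mesenchymal stem cells, treated with drug combinations. Concentrations descend in half-log steps from near clinical Cmax, or from 10 microM where Cmax is unknown; viability read-out.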

[1] = second compound 0.0316 µM, first compound 0.0316 µM
[2] = second compound 0.0316 µM, first compound 0.1 µM
[3] = second compound 0.0316 µM, first compound 0.316 µM
[4] = second compound 0.0316 µM, first compound 1 µM
[5] = second compound 0.0316 µM, first compound 3.16 µM
[6] = second compound 0.0316 µM, first compound 10 µM
[7] = second compound 0.1 µM, first compound 0.0316 µM
[8] = second compound 0.1 µM, first compound 0.1 µM
[9] = second compound 0.1 µM, first compound 0.316 µM
[10] = second compound 0.1 µM, first compound 1 µM
[11] = second compound 0.1 µM, first compound 3.16 µM
[12] = second compound 0.1 µM, first compound 10 µM
[13] = second compound 0.316 µM, first compound 0.0316 µM
[14] = second compound 0.316 µM, first compound 0.1 µM
[15] = second compound 0.316 µM, first compound 0.316 µM
[16] = second compound 0.316 µM, first compound 1 µM
[17] = second compound 0.316 µM, first compound 3.16 µM
[18] = second compound 0.316 µM, first compound 10 µM
[19] = second compound 1 µM, first compound 0.0316 µM
[20] = second compound 1 µM, first compound 0.1 µM
[21] = second compound 1 µM, first compound 0.316 µM
[22] = second compound 1 µM, first compound 1 µM
[23] = second compound 1 µM, first compound 3.16 µM
[24] = second compound 1 µM, first compound 10 µM
[25] = second compound 3.16 µM, first compound 0.0316 µM
[26] = second compound 3.16 µM, first compound 0.1 µM
[27] = second compound 3.16 µM, first compound 0.316 µM
[28] = second compound 3.16 µM, first compound 1 µM
[29] = second compound 3.16 µM, first compound 3.16 µM
[30] = second compound 3.16 µM, first compound 10 µM
[31] = second compound 10 µM, first compound 0.0316 µM
[32] = second compound 10 µM, first compound 0.1 µM
[33] = second compound 10 µM, first compound 0.316 µM
[34] = second compound 10 µM, first compound 1 µM
[35] = second compound 10 µM, first compound 3.16 µM
[36] = second compound 10 µM, first compound 10 µM
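Also: spheroids exposed to compounds for seven days.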
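For viability, T/C in this document: 100% = DMSO vehicle control viability.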

COc1ncnc(C2CC2)c1-c1ncc2cnn(Cc3ccc(-c4nc(C(F)(F)F)cn4C(C)C)cc3)c2n1 + Cc1[nH]c2ccc(F)cc2c1-c1nc2c3cccnc3c3ncccc3c2[nH]1 showed an IC50 (second compound 0.0316 µM) of over 10 µM, an IC50 (second compound 0.1 µM) of over 10 µM and an IC50 (second compound 0.316 µM) of over 10 µM. It also gave an IC50 (second compound 1 µM) of over 10 µM, an IC50 (second compound 3.16 µM) of over 10 µM and an IC50 (second compound 10 µM) of over 10 µM. It also gave a viability, T/C [1] of 112%, a viability, T/C [2] of 100% and a viability, T/C [3] of 110%. For the same compound, the viability, T/C [4] was 110%, the viability, T/C [5] was 96% and the viability, T/C [6] was 102%. The viability, T/C [7] was 126%, the viability, T/C [8] was 102% and the viability, T/C [9] was 107%. For the same compound, the viability, T/C [10] was 105%, the viability, T/C [11] was 92.9% and the viability, T/C [12] was 100%. The viability, T/C [13] was 109%, the viability, T/C [14] was 111% and the viability, T/C [15] was 106%. The viability, T/C [16] was 120%, the viability, T/C [17] was 105% and the viability, T/C [18] was 98.6%. For the same compound, the viability, T/C [19] was 103%, the viability, T/C [20] was 99.3% and the viability, T/C [21] was 105%. The viability, T/C [22] was 106%, the viability, T/C [23] was 92.3% and the viability, T/C [24] was 98.9%. For the same compound, the viability, T/C [25] was 99.2%, the viability, T/C [26] was 97.3% and the viability, T/C [27] was 99.4%. It also gave a viability, T/C [28] of 91.5%, a viability, T/C [29] of 96.9% and a viability, T/C [30] of 89.8%. It also gave a viability, T/C [31] of 102%, a viability, T/C [32] of 92.9% and a viability, T/C [33] of 96.7%. For the same compound, the viability, T/C [34] was 86.8%, the viability, T/C [35] was 83.5% and the viability, T/C [36] was 95.1%.
Work on COc1ccc([C@@H](O)c2cc(-c3ncnc4cc(N5CCOCC5)ccc34)c(F)cc2Cl)nn1 + CN(C)c1ccc(Nc2c3ccc(NC(=O)CCN4CCCC4)cc3nc3cc(NC(=O)CCN4CCCC4)ccc23)cc1 yielded an IC50 (second compound 0.0316 µM) of over 10 µM, an IC50 (second compound 0.1 µM) of over 10 µM and an IC50 (second compound 0.316 µM) of 9.2 µM. The IC50 (second compound 1 µM) was 6.56 µM, the IC50 (second compound 3.16 µM) was 5.39 µM and the IC50 (second compound 10 µM) was 2.89 µM. For the same compound, the viability, T/C [1] was 101%, the viability, T/C [2] was 94.6% and the viability, T/C [3] was 96.3%. For the same compound, the viability, T/C [4] was 82.8%, the viability, T/C [5] was 69.1% and the viability, T/C [6] was 55.7%. For the same compound, the viability, T/C [7] was 112%, the viability, T/C [8] was 98.5% and the viability, T/C [9] was 101%. The viability, T/C [10] was 82.9%, the viability, T/C [11] was 65.5% and the viability, T/C [12] was 51.5%. The viability, T/C [13] was 93.3%, the viability, T/C [14] was 91.5% and the viability, T/C [15] was 89.1%. For the same compound, the viability, T/C [16] was 76.1%, the viability, T/C [17] was 66.5% and the viability, T/C [18] was 48.5%. It also gave a viability, T/C [19] of 89.5%, a viability, T/C [20] of 86.3% and a viability, T/C [21] of 88.2%. For the same compound, the viability, T/C [22] was 76.6%, the viability, T/C [23] was 59.4% and the viability, T/C [24] was 44.7%. It also gave a viability, T/C [25] of 86.1%, a viability, T/C [26] of 91.2% and a viability, T/C [27] of 85.2%. The viability, T/C [28] was 68.9%, the viability, T/C [29] was 59.9% and the viability, T/C [30] was 40.7%. The viability, T/C [31] was 76.6%, the viability, T/C [32] was 68.2% and the viability, T/C [33] was 81.9%. For the same compound, the viability, T/C [34] was 61.4%, the viability, T/C [35] was 50% and the viability, T/C [36] was 27.6%.
COc1cccc2c1C(=O)c1c(O)c3c(c(O)c1C2=O)CC(O)(C(=O)CO)CC3OC1CC(N)C(O)C(C)O1 (stereo unspecified) + CN(C)c1ccc(Nc2c3ccc(NC(=O)CCN4CCCC4)cc3nc3cc(NC(=O)CCN4CCCC4)ccc23)cc1 showed an IC50 (second compound 0.0316 µM) of 0.236 µM, an IC50 (second compound 0.1 µM) of 0.242 µM and an IC50 (second compound 0.316 µM) of 0.255 µM. It also gave an IC50 (second compound 1 µM) of 0.253 µM, an IC50 (second compound 3.16 µM) of 0.405 µM and an IC50 (second compound 10 µM) of 0.41 µM. The viability, T/C [1] was 104%, the viability, T/C [2] was 72.1% and the viability, T/C [3] was 33%. For the same compound, the viability, T/C [4] was 33.2%, the viability, T/C [5] was 20.6% and the viability, T/C [6] was 1.74%. The viability, T/C [7] was 98.9%, the viability, T/C [8] was 71.8% and the viability, T/C [9] was 36.3%. It also gave a viability, T/C [10] of 31.1%, a viability, T/C [11] of 20.8% and a viability, T/C [12] of 2.34%. It also gave a viability, T/C [13] of 100%, a viability, T/C [14] of 69.8% and a viability, T/C [15] of 33.4%. The viability, T/C [16] was 40.5%, the viability, T/C [17] was 22.4% and the viability, T/C [18] was 2.19%. For the same compound, the viability, T/C [19] was 97.5%, the viability, T/C [20] was 63% and the viability, T/C [21] was 36%. For the same compound, the viability, T/C [22] was 42.2%, the viability, T/C [23] was 29.4% and the viability, T/C [24] was 3.18%. It also gave a viability, T/C [25] of 88.3%, a viability, T/C [26] of 72.6% and a viability, T/C [27] of 40.2%. It also gave a viability, T/C [28] of 44.2%, a viability, T/C [29] of 27.9% and a viability, T/C [30] of 2.27%. It also gave a viability, T/C [31] of 79.1%, a viability, T/C [32] of 61.1% and a viability, T/C [33] of 44.1%. For the same compound, the viability, T/C [34] was 47.2%, the viability, T/C [35] was 31.1% and the viability, T/C [36] was 3.01%.
